Data reported in publication PMC11157767 (Molecular Cancer, 2024).
Several values for one entry are separate records, joined by “and”; a condition that tells them apart may be missing. Identical values can stand only once. Like-named read-outs stand apart in the source and are kept apart here.

Tests used:
TRIM24-MET-i PDOX [1] = test: TRIM24-MET-i PDOX 4-arm trial capmatinib +/- RT (survival, BLI, body weight); type: in vivo, mouse
Procedure: (§1) All treatments started 18 days after transplantation. Radiotherapy was administered at 0.5 Gy per day, delivering 10 Gy total.
Treatment started on day 13.

[2] = test system: TRIM24-MET L97 human glioma cell lines; test: γH2AX immunofluorescence after 4 Gy irradiation, TRIM24-MET human glioma cells; type: cell-based; details: 1, 2, 3 and 4 hours following 4 Gy irradiation
Procedure: (§2) Error bars display standard error of mean, statistical significance was determined using t-test analysis. (****;p<0.0001, ***;p<0.001, **;p<0.01, *;p<0.05). […] Each dot represents an individual replicate. Error bars display standard error of the mean. Statistical significance was determined using a One-Way ANOVA followed by Tukey’s multiple comparisons test (*p<0.05, **p<0.01, ***p<0.001, ****p<0.0001).

TFG-MET cells = test: γH2AX immunofluorescence after 8Gy irradiation, TFG-MET cells; type: cell-based, mouse; details: various time points following 8Gy irradiation
Source text: Error bars display standard error of mean, statistical significance determined using t-test analysis, *;p<0.05. Scale bar is 10µm.

Kap1 pS824 = test: Western blot of phosphorylated Kap1 (pS824) in TFG-MET allograft tumors; type: in vivo, mouse; details: capmatinib and RT
Procedure: as §2

[3] = test system: cells isolated from murine tumors induced by overexpressing TFG-MET alone; details: without Trp53 knockout
TRIM24-MET-i PDOX [4] = details: for BLI signal, individual mice: PDX trial cap vs cabo
Procedure: as §1
Each line represents one mouse. The ends of lines indicate the onset of neurological symptoms and thereby the endpoints. Treatment started on day 13.

[5] = mNSCLC patients; cited from earlier work
[6] = In vitro protein binding assay, mouse plasma
[7] = In vitro protein binding assay, naive mouse brain tissue homogenate
MET-fusion pHGG = details: cited from earlier work
in vitro [8] = details: mouse, plasma
in vitro [9] = details: mouse, brain homogenate

Question: Which results are given for CNC(=O)c1ccc(-c2cnc3ncc(Cc4ccc5ncccc5c4)n3n2)cc1F [Capmatinib]?
Answer: mice with spinal metastasis after therapy was withdrawn (TRIM24-MET-i PDOX [1]; capmatinib + RT): one; tumor burden (TRIM24-MET-i PDOX [1]; capmatinib + RT (0.5 Gy per day, 10 Gy total)): profoundly and stably decreased tumor burden; disease course under monotherapy (TRIM24-MET-i PDOX [1]; capmatinib alone): stable disease in all treated animals; percentage of cells with ≥20 γH2AX-foci vs DMSO [2]: significantly higher; percentage of cells with ≥10 γH2AX-foci vs DMSO (TFG-MET cells): significantly higher; phosphorylated Kap1 in tumors vs vehicle + RT (Kap1 pS824): significantly greater increase; inhibition in dose response assay [3]: potently inhibited; BLI signal, individual mice (TRIM24-MET-i PDOX [4]; day 7): 3.18E+07 and 1.72E+07 and 3.36E+07; BLI signal, individual mice (TRIM24-MET-i PDOX [4]; day 9): 7.47E+07 and 3.47E+07; BLI signal, individual mice (TRIM24-MET-i PDOX [4]; day 14): 5.84E+07 and 2.51E+07; BLI signal, individual mice (TRIM24-MET-i PDOX [4]; day 17): 2.44E+07 and 1.00E+07; BLI signal, individual mice (TRIM24-MET-i PDOX [4]; day 21): 1.66E+07 and 1.85E+07; BLI signal, individual mice (TRIM24-MET-i PDOX [4]; day 24): 1.50E+07 and 1.24E+07; BLI signal, individual mice (TRIM24-MET-i PDOX [4]; day 28): 1.39E+07 and 1.53E+07; BLI signal, individual mice (TRIM24-MET-i PDOX [4]; day 31): 7.80E+06 and 1.43E+07; BLI signal, individual mice (TRIM24-MET-i PDOX [4]; day 35): 9.55E+06 and 1.60E+07 and 7.43E+06; BLI signal, individual mice (TRIM24-MET-i PDOX [4]; day 38): 8.92E+06 and 1.56E+07 and 7.00E+06; BLI signal, individual mice (TRIM24-MET-i PDOX [4]; day 42): 7.91E+06 and 1.63E+07 and 5.51E+06; BLI signal, individual mice (TRIM24-MET-i PDOX [4]; day 45): 9.52E+06 and 1.30E+07 and 6.98E+06; BLI signal, individual mice (TRIM24-MET-i PDOX [4]; day 49): 7.93E+06 and 9.97E+06 and 5.88E+06; BLI signal, individual mice (TRIM24-MET-i PDOX [4]; day 52): 7.48E+06 and 8.25E+06 and 4.19E+06; BLI signal, individual mice (TRIM24-MET-i PDOX [4]; day 56): 8.25E+06 and 1.00E+07 and 5.09E+06; BLI signal, individual mice (TRIM24-MET-i PDOX [4]; day 59): 2.02E+06 and 8.98E+06 and 4.17E+06; BLI signal, individual mice (TRIM24-MET-i PDOX [4]; day 63): 5.64E+06 and 9.13E+06 and 4.23E+06; BLI signal, individual mice (TRIM24-MET-i PDOX [4]; day 66): 6.00E+06 and 8.25E+06 and 4.18E+06; BLI signal, individual mice (TRIM24-MET-i PDOX [4]; day 70): 1.53E+06 and 8.82E+06 and 4.89E+06; BLI signal, individual mice (TRIM24-MET-i PDOX [4]; day 73): 1.32E+06 and 6.23E+06 and 4.17E+06; BLI signal, individual mice (TRIM24-MET-i PDOX [4]; day 77): 4.79E+05 and 1.07E+07 and 4.65E+06; BLI signal, individual mice (TRIM24-MET-i PDOX [4]; day 80): 4.21E+05 and 1.01E+07 and 4.77E+06; BLI signal, individual mice (TRIM24-MET-i PDOX [4]; day 87): 5.96E+05 and 1.05E+07 and 4.96E+06; BLI signal, individual mice (TRIM24-MET-i PDOX [4]; day 94): 8.51E+05 and 7.79E+06; BLI signal, individual mice (TRIM24-MET-i PDOX [4]; day 101): 4.10E+05 and 7.68E+06; BLI signal, individual mice (TRIM24-MET-i PDOX [4]; day 108): 4.16E+05 and 7.10E+06; BLI signal, individual mice (TRIM24-MET-i PDOX [4]; day 115): 3.96E+05 and 8.39E+06; BLI signal, individual mice (TRIM24-MET-i PDOX [4]; day 122): 5.52E+05 and 6.96E+06; BLI signal, individual mice (TRIM24-MET-i PDOX [4]; day 129): 5.43E+05 and 7.67E+06; BLI signal, individual mice (TRIM24-MET-i PDOX [4]; day 134): 7.37E+05 and 1.29E+07; BLI signal, individual mice (TRIM24-MET-i PDOX [4]; day 142): 2.48E+05 and 8.31E+06; BLI signal, individual mice (TRIM24-MET-i PDOX [4]; day 147): 1.01E+05 and 6.09E+06; BLI signal, individual mice (TRIM24-MET-i PDOX [4]; day 154): 7.12E+04 and 6.90E+06; BLI signal, individual mice (TRIM24-MET-i PDOX [4]; day 161): 9.26E+04 and 5.65E+06; BLI signal, individual mice (TRIM24-MET-i PDOX [4]; day 175): 1.61E+05 and 5.72E+06; BLI signal, individual mice (TRIM24-MET-i PDOX [4]; day 182): 4.78E+04 and 7.21E+06; BLI signal, individual mice (TRIM24-MET-i PDOX [4]; day 190): 3.12E+05 and 5.75E+06; BLI signal, individual mice (TRIM24-MET-i PDOX [4]; day 196): 6.90E+05 and 4.81E+06; BLI signal, individual mice (TRIM24-MET-i PDOX [4]; day 203): 1.41E+06 and 5.43E+06; BLI signal, individual mice (TRIM24-MET-i PDOX [4]; day 210): 4.51E+07 and 1.12E+07; BLI signal, individual mice (TRIM24-MET-i PDOX [4]; day 217): 1.20E+07; BLI signal, individual mice (TRIM24-MET-i PDOX [4]; day 224): 3.17E+07; BLI signal, individual mice (TRIM24-MET-i PDOX [4]; day 231): 3.11E+08; BLI signal, individual mice (TRIM24-MET-i PDOX [4]; day 238): 8.31E+08; survival over the 19-week treatment period (TRIM24-MET-i PDOX [4]; capmatinib BID, 8 mice): all mice surviving; mice with initial tumor regression (luciferase imaging) (TRIM24-MET-i PDOX [4]; capmatinib monotherapy): two out of eight; mice with stable disease (BLI) (TRIM24-MET-i PDOX [4]; capmatinib monotherapy): six out of eight; mice with tumor relapse within 6 months after treatment ceased (TRIM24-MET-i PDOX [4]; capmatinib, treated 133 days): 7 of 8; discontinuation due to fatigue [5]: 1.5%; discontinuation due to peripheral edema [5]: 1.8%; discontinuation due to pneumonitis [5]: 1.8%; patients permanently discontinued due to an adverse reaction [5]: 16%; fraction unbound [6]: 0.0502; fraction unbound [7]: 0.113

Question: With C[C@@H](Oc1cc(-c2cnn(C3CCNCC3)c2)cnc1N)c1c(Cl)ccc(F)c1Cl [Crizotinib] as the compound, how does the “clinical response of one pHGG patient with MET fusion” value (MET-fusion pHGG) read?
Answer: The value was “partial response with rapid tumor relapse”.

Question: What about the fraction unbound (in vitro [8]) of the same compound?
Answer: The fraction unbound was 0.0223.

Question: What about the fraction unbound (in vitro [9]) of the same compound?
Answer: Its fraction unbound is 0.0106.
